Data set [1] relates to Trypanosoma brucei. Put plainly: Antitrypanosomal activity against bloodstream Trypanosoma brucei 427 after 72 hrs by resazurin assay. The class given is functional, organism-based. Particulars: Trypanosoma brucei, 427, 72 h.
A further data set deals with L929. Kind of data set: Cytotoxicity against mouse L929 cells after 72 hrs by resazurin assay. The class given is cell-based. Particulars: L929, 72 h.
Data set [2] relates to Trypanosoma brucei. Put plainly: Antitrypanosomal activity against bloodstream Trypanosoma brucei 221 infected in Balb/c mouse assessed as increase in mouse survival rate at 50 mg/kg, ip BID for 5 days starting 24 hrs post infection measured after 30 days by microscopic analysis. The class given is functional. The following applies: Trypanosoma brucei, 221, ip, route intraperitoneal.

Data set [3] relates to Trypanosoma brucei. Put plainly: Antitrypanosomal activity against bloodstream Trypanosoma brucei 221 infected in Balb/c mouse assessed as complete elimination of parasitemia at 50 mg/kg, ip BID for 5 days starting 24 hrs post infection measured after 30 days by microscopic analysis. The format is functional, organism-based. Also on record: dose 50 mg/kg.
The nature of data set [4]: Selectivity ratio of IC50 for mouse L929 cells to IC50 for bloodstream Trypanosoma brucei 427. Particulars: read-out: Ratio IC50. The class given is ADME, cell-based.

≈ marks a conversion by molar mass, not a printed value. Calls of active or inactive are those of the source. No cut-off for these calls is given here.

`O=C(/C=C/c1ccc2c(c1)B(O)OC2)c1cccc(O)c1`: the IC50 amounted to 0.037 µg/mL (≈ 0.132 µM) in the data set with Trypanosoma brucei [1] and 7.56 µg/mL (≈ 27 µM) in the data set with L929.
Regarding `COc1ccc(C(=O)/C=C/c2ccc3c(c2)B(O)OC3)cc1`, the 50% inhibitory concentration (IC50) in the data set on Trypanosoma brucei [1] is 0.071 µg/mL (≈ 0.241 µM); with L929 it was > 10 µg/mL. Besides, the survival at 50 mg/kg in the data set on Trypanosoma brucei [2] amounted to 0%.
With `O=C(/C=C/c1ccc2c(c1)B(O)OC2)c1ccc(OCc2ccccc2)cc1`, the IC50 in the data set with Trypanosoma brucei [1] is 0.164 µg/mL (≈ 0.443 µM); in the data set with L929, > 10 µg/mL.
As to `O=C(/C=C/c1ccc2c(c1)B(O)OC2)c1ccc(Cl)c(Cl)c1`, the half-maximal inhibitory concentration (IC50) with Trypanosoma brucei [1] was 0.09 µg/mL (≈ 0.27 µM); in the data set on L929, > 10 µg/mL.
Turning to `O=C(/C=C/c1ccc2c(c1)B(O)OC2)c1ccccc1`, the IC50 was 0.089 µg/mL (≈ 0.337 µM) with Trypanosoma brucei [1] and > 10 µg/mL with L929. For the same compound, the survival at 50 mg/kg with Trypanosoma brucei [2] was 0%.
Turning to `Cc1cccc(C(=O)/C=C/c2ccc3c(c2)B(O)OC3)c1`, the values for the IC50 with Trypanosoma brucei [1] and in the data set with L929 were 0.048 µg/mL (≈ 0.173 µM) and 8.56 µg/mL (≈ 30.8 µM), respectively. Further, the survival at 50 mg/kg with Trypanosoma brucei [2] was 0%.
As to `COc1cccc(C(=O)/C=C/c2ccccc2)c1`, the IC50 with Trypanosoma brucei [1] was 0.395 µg/mL (≈ 1.66 µM); in the data set with L929 it was 5.7 µg/mL (≈ 23.9 µM).
As for `O=C(O)c1ccc(C(=O)/C=C/c2ccc3c(c2)B(O)OC3)cc1`, the concentration for half-maximal inhibition (IC50) in the data set with Trypanosoma brucei [1] is 4.45 µg/mL (≈ 14.4 µM); with L929, > 10 µg/mL.
On to `Cc1ccc(C(=O)/C=C/c2ccc3c(c2)B(O)OC3)cc1`, for which the half-maximal inhibitory concentration (IC50) was 0.046 µg/mL (≈ 0.165 µM) in the data set on Trypanosoma brucei [1] and > 10 µg/mL with L929.
On the same counts, the results for `O=C(/C=C/c1ccc2c(c1)B(O)OC2)c1ccc(C(F)(F)F)cc1` are 0.133 µg/mL (≈ 0.4 µM) and > 10 µg/mL.
For the compound `O=C(/C=C/c1ccc2c(c1)B(O)OC2)c1ccc(O)c(O)c1`, the IC50 in the data set with Trypanosoma brucei [1] is 0.055 µg/mL (≈ 0.186 µM); with L929 it was > 10 µg/mL.
For `CSc1ccc(C(=O)/C=C/c2ccc3c(c2)B(O)OC3)cc1`, the IC50 in the data set on Trypanosoma brucei [1] was 0.059 µg/mL (≈ 0.19 µM); in the data set on L929 it was > 10 µg/mL.
In the case of `O=C(/C=C/c1ccc2c(c1)B(O)OC2)c1ccc(O)cc1`, the IC50 was 0.043 µg/mL (≈ 0.154 µM) in the data set on Trypanosoma brucei [1] and > 10 µg/mL with L929.
With `O=C(/C=C/c1ccc2c(c1)B(O)OC2)c1ccc(I)cc1`, the results for the half-maximal inhibitory concentration (IC50) in the data set on Trypanosoma brucei [1] and with L929 were 0.171 µg/mL (≈ 0.438 µM) and > 10 µg/mL, respectively.
On the same counts, the results for `O=C(/C=C/c1ccc2c(c1)B(O)OC2)c1ccccc1O` are 0.172 µg/mL (≈ 0.614 µM) and > 10 µg/mL.
As for `O=C(/C=C/c1ccc2c(c1)B(O)OC2)c1ccc(F)cc1`, the half-inhibitory concentration (IC50) was 0.1 µg/mL (≈ 0.355 µM) in the data set on Trypanosoma brucei [1] and > 10 µg/mL in the data set on L929. In the data set on Trypanosoma brucei [2], the survival at 50 mg/kg is 0%.
Turning to `COc1ccccc1C(=O)/C=C/c1ccc2c(c1)B(O)OC2`, the results for the half-maximal inhibitory concentration (IC50) in the data set with Trypanosoma brucei [1] and in the data set with L929 were 0.058 µg/mL (≈ 0.197 µM) and 6.35 µg/mL (≈ 21.6 µM), respectively.
`Cc1ccc(C(=O)/C=C/c2ccc3c(c2)B(O)OC3)cc1C`: the results for the IC50 with Trypanosoma brucei [1] and with L929 were 0.04 µg/mL (≈ 0.137 µM) and > 10 µg/mL, respectively.
As for `O=C(/C=C/c1ccc2c(c1)B(O)OC2)c1cccs1`, the results for the IC50 with Trypanosoma brucei [1] and in the data set on L929 were 0.045 µg/mL (≈ 0.167 µM) and > 10 µg/mL, respectively. Further, the survival at 50 mg/kg with Trypanosoma brucei [2] stood at 20%.
`O=C(/C=C/c1ccc2c(c1)B(O)OC2)c1ccccc1F`: the IC50 was 0.071 µg/mL (≈ 0.252 µM) with Trypanosoma brucei [1] and > 10 µg/mL in the data set with L929.
For the compound `O=C(/C=C/c1ccc2c(c1)B(O)OC2)c1cccc(F)c1`, the figures for the IC50 in the data set on Trypanosoma brucei [1] and in the data set with L929 were 0.046 µg/mL (≈ 0.163 µM) and > 10 µg/mL, respectively.
As for `COc1cc(C(=O)/C=C/c2ccc3c(c2)B(O)OC3)cc(OC)c1OC`, the values for the half-inhibitory concentration (IC50) with Trypanosoma brucei [1] and with L929 were 0.113 µg/mL (≈ 0.319 µM) and > 10 µg/mL, respectively.
For `O=C(/C=C/c1ccc2c(c1)B(O)OC2)c1ccc(Cl)cc1`, the half-maximal inhibitory concentration (IC50) in the data set with Trypanosoma brucei [1] was 0.06 µg/mL (≈ 0.201 µM); in the data set with L929, > 10 µg/mL. Further, the survival at 50 mg/kg in the data set on Trypanosoma brucei [2] worked out at 0%.
`O=C(/C=C/c1ccc2c(c1)B(O)OC2)c1ccco1`: the IC50 in the data set with Trypanosoma brucei [1] was 0.064 µg/mL (≈ 0.252 µM); with L929, > 10 µg/mL.
On the same counts, the results for `O=C(/C=C/c1ccc2c(c1)B(O)OC2)c1ccccn1` are 0.099 µg/mL (≈ 0.373 µM) and > 10 µg/mL.
For the compound `Cn1cccc1C(=O)/C=C/c1ccc2c(c1)B(O)OC2`, the IC50 with Trypanosoma brucei [1] was 0.057 µg/mL (≈ 0.213 µM); in the data set on L929 it was > 10 µg/mL.
On the same counts, the results for `Nc1ccc(C(=O)/C=C/c2ccc3c(c2)B(O)OC3)cc1` are 0.024 µg/mL (≈ 0.086 µM) and > 10 µg/mL.
Take `CC(=O)Nc1ccc(C(=O)/C=C/c2ccc3c(c2)B(O)OC3)cc1`: the results for the IC50 in the data set on Trypanosoma brucei [1] and in the data set on L929 were 0.04 µg/mL (≈ 0.125 µM) and > 10 µg/mL, respectively. In addition, the survival at 50 mg/kg in the data set on Trypanosoma brucei [2] was found to be 0%.
Consider `O=C(/C=C/c1ccc2c(c1)B(O)OC2)c1ccc(-c2ccccc2)cc1`, for which the IC50 in the data set with Trypanosoma brucei [1] is 0.436 µg/mL (≈ 1.28 µM); in the data set on L929 it was > 10 µg/mL.
With `O=C(/C=C/c1ccc2c(c1)B(O)OC2)c1cccc2ccccc12`, the IC50 is 0.135 µg/mL (≈ 0.43 µM) in the data set with Trypanosoma brucei [1] and 3.67 µg/mL (≈ 11.7 µM) in the data set on L929.
For the compound `O=C(/C=C/c1ccc2c(c1)B(O)OC2)c1ccc([N+](=O)[O-])cc1`, the IC50 in the data set on Trypanosoma brucei [1] was 0.082 µg/mL (≈ 0.265 µM); with L929, > 10 µg/mL.
Regarding `O=C(/C=C/c1ccc2c(c1)B(O)OC2)c1ccc2c(c1)OCCO2`, the IC50 in the data set with Trypanosoma brucei [1] came out at 0.08 µg/mL (≈ 0.248 µM); with L929, 6.8 µg/mL (≈ 21.1 µM).
As for `COc1cccc(C(=O)/C=C/c2ccc3c(c2)B(O)OC3)c1`, the IC50 was 0.022 µg/mL (≈ 0.0748 µM) with Trypanosoma brucei [1] and > 10 µg/mL with L929. Further, the survival at 50 mg/kg with Trypanosoma brucei [2] worked out at 100%. The result in the data set on Trypanosoma brucei [3] was Active.
As to `CCOC(=O)c1ccc(C(=O)/C=C/c2ccc3c(c2)B(O)OC3)cc1`, the figures for the IC50 in the data set on Trypanosoma brucei [1] and with L929 were 0.2 µg/mL (≈ 0.595 µM) and > 10 µg/mL, respectively.
Turning to `O=C(/C=C/c1ccc2c(c1)B(O)OC2)c1ccc(Br)cc1`, the IC50 is 0.09 µg/mL (≈ 0.262 µM) in the data set with Trypanosoma brucei [1] and > 10 µg/mL in the data set with L929. The survival at 50 mg/kg with Trypanosoma brucei [2] was 0%.
For the compound `OB1OCc2ccc(/C=C/C(O)c3ccccc3)cc21` (centres undefined), the IC50 with Trypanosoma brucei [1] came to 0.239 µg/mL (≈ 0.898 µM); with L929 it was 2.88 µg/mL (≈ 10.8 µM).
As for `Nc1cccc(C(=O)/C=C/c2ccc3c(c2)B(O)OC3)c1`, the IC50 with Trypanosoma brucei [1] was determined as 0.056 µg/mL (≈ 0.201 µM); in the data set on L929, 10 µg/mL (≈ 35.8 µM).
`O=C(/C=C/c1ccccc1)c1ccccc1` [CHALCONE]: the half-maximal inhibitory concentration (IC50) came out at 0.473 µg/mL (≈ 2.27 µM) with Trypanosoma brucei [1] and 6.92 µg/mL (≈ 33.2 µM) in the data set with L929.
With `COCOc1ccccc1C(=O)/C=C/c1ccc2c(c1)B(O)OC2`, the results for the IC50 in the data set with Trypanosoma brucei [1] and in the data set on L929 were 0.366 µg/mL (≈ 1.13 µM) and 9.02 µg/mL (≈ 27.8 µM), respectively.
Regarding `COc1cc(C(=O)/C=C/c2ccc3c(c2)B(O)OC3)ccc1[N+](=O)[O-]`, the IC50 in the data set with Trypanosoma brucei [1] is 0.044 µg/mL (≈ 0.13 µM); in the data set with L929 it was > 10 µg/mL. Also, the survival at 50 mg/kg in the data set on Trypanosoma brucei [2] came to 0%.
Take `O=C(CCc1ccc2c(c1)B(O)OC2)c1ccccc1`: the half-inhibitory concentration (IC50) with Trypanosoma brucei [1] is 0.331 µg/mL (≈ 1.24 µM); in the data set with L929 it was > 10 µg/mL.
On to `COc1ccc(C(=O)/C=C/c2ccc3c(c2)B(O)OC3)cc1OC`, for which the IC50 is 0.03 µg/mL (≈ 0.0926 µM) in the data set on Trypanosoma brucei [1] and > 10 µg/mL in the data set on L929.
As to `COc1cccc(C(=O)CCc2ccc3c(c2)B(O)OC3)c1`, the figures for the IC50 with Trypanosoma brucei [1] and in the data set on L929 were 0.69 µg/mL (≈ 2.33 µM) and > 10 µg/mL, respectively.
In the case of `CCc1ccc(C(=O)/C=C/c2ccc3c(c2)B(O)OC3)cc1`, the results for the IC50 in the data set on Trypanosoma brucei [1] and with L929 were 0.064 µg/mL (≈ 0.219 µM) and > 10 µg/mL, respectively.
Consider `COc1ccc(C(=O)/C=C/c2ccc3c(c2)B(O)OC3)c(OC)c1`, for which the IC50 came out at 0.037 µg/mL (≈ 0.114 µM) in the data set on Trypanosoma brucei [1] and 7.87 µg/mL (≈ 24.3 µM) in the data set on L929.
With `COCOc1cccc(C(=O)/C=C/c2ccc3c(c2)B(O)OC3)c1`, the figures for the IC50 in the data set on Trypanosoma brucei [1] and in the data set on L929 were 0.071 µg/mL (≈ 0.219 µM) and > 10 µg/mL, respectively. For the same compound, in the data set on Trypanosoma brucei [2], the survival at 50 mg/kg was found to be 0%.
For `COc1cc(C(=O)/C=C/c2ccc3c(c2)B(O)OC3)ccc1N`, the half-inhibitory concentration (IC50) was 0.01 µg/mL (≈ 0.0323 µM) with Trypanosoma brucei [1] and 1.45 µg/mL (≈ 4.69 µM) with L929. The selectivity ratio in data set [4] is > 100. In addition, the survival at 50 mg/kg in the data set on Trypanosoma brucei [2] was determined as 100%. In addition, the result with Trypanosoma brucei [3] was Active.

(Values after ChEMBL document CHEMBL2034952, “Chalcone-benzoxaborole hybrid molecules as potent antitrypanosomal agents” (J Med Chem, 2012).)
